# Tested on: T1, acetate kinase
# T1 construct: gene ackA; purified recombinant acetate kinase
# Experiment: ITC at […]°C ([…] protein, […] compound); also bead pull-down with MS and Western blot, and increased activity of the purified enzyme at […]
# Type: binding, Geobacillus sp. E263
smiles,measurement,value
CCCCCCCCCCCCCCCC(N)=O [palmitic amide],Kd,13.2 ± 28.1 µM

# Reference: publication PMC9224243, “Palmitic Amide Triggers Virus Life Cycle via Enhancing Host Energy Metabolism” (Frontiers in Microbiology, 2022)
